# Measurements reported in patent US11136297B2, “Compositions and methods for treating cancer” (THE REGENTS OF THE UNIVERSITY OF CALIFORNIA, priority 2016, dated 2021).
# How the values were obtained:
# [1] = molecular target: T1, H-Ras(M72C) bound to either GDP or GppNHp (Homo sapiens, UniProt P01112, M72C); assay: Electrophile labeling experiments (percent modification by whole protein LC/MS); format: binding; conditions: 4 μM H-Ras(M72C) GDP or GppNHp, 100 μM electrophile, 24 hours
# T1 construct: Labeling studies were conducted using the 1-166 H-Ras(M72C) construct containing all endogenous cysteines; His6; made in house; host or cells: Escherichia coli BL21(DE3)
# Description: Electrophile Labeling Experiments.
# Each reaction was analyzed in a 96 well plate format for analysis by LC/MS. Total reaction volumes were 25 μL for single time point labeling experiments and 200 uL for full 24-hour time courses. 25 μL reactions were made in the wells of a V-bottom 96 well plate and 200 uL reactions were made in 1.25 mL eppendorf tubes. All labeling reactions were conducted in Gel Filtration Buffer (20 mM HEPES (pH 7.5), 150 mM NaCl) with no added reductant at room temperature. […] Electrophile stocks were made in DMSO at 10 mM, aliquoted, and frozen. Labeling reactions were started by the addition of the desired volume of 10 mM electrophile stock and mixed thoroughly by pipette. General screening of new electrophiles was done at 100 μM electrophile in triplicate and sampled as a single time point after 24 hours of incubation. For Compound 3, labeling time courses were conducted at 20 μM compound with sampling done every 2 hours for the first 10 hours of incubation and continued after overnight incubation until the protein was fully modified. Reactions were allowed to sit at room temperature in the dark (either covered in aluminum foil or in a bench drawer) until the desired time point was reached. For 24-hour single point labeling experiments, the reaction was directly sampled from the 96 well plate and analyzed by LC/MS. For experiments with multiple time points, 22.5 μL aliquots of the 200 μL master reaction were sampled and quenched by the addition of 2.5 μL of 2% formic acid (also made in Gel Filtration Buffer). This 25 μL quenched sample was then analyzed by LC/MS and the remaining master reaction was allowed to continue reacting after gentle mixing by pipette. The percent modification was analyzed by electrospray mass spectrometry using a Waters Acquity UPLC/ESI-TQD with a 2.1×50 mm Acquity UPLC BEH300 C4 column.
# [2] = molecular target: T2, H-Ras(M72C) GppNHp binding to Raf-1-RBD (Homo sapiens, UniProt P01112, M72C); assay: Raf-1-RBD pull-down of labeled H-Ras(M72C) GppNHp; conditions: H-Ras(M72C) GppNHp pre-labeled with compound; various concentrations of H-Ras
# T2 construct: and H-Ras (residues 1-166) were transformed into Escherichia coli; His6; made in house; host or cells: Escherichia coli BL21(DE3)
# Description: FIGS. 29A-29D. […] FIG. 29D: Reconstruction of Ras cycle is achieved by inducing nucleotide exchange of 100 nM Ras by various concentrations of SOS^cat for either 1 or 2 hours and subsequent pull-down by Raf-1-RBD.
# FIGS. 33A-33D. […] In FIG. 33B) through FIG. 33D), normalized pull-down signals are shown below the blot. S. E. M for each signal, number of replicates, and […] for each comparative Standard T-Test are summarized herein (see Tables 33B, 33C, and 33D). […] Comparative statistics were done for normalized pull-down signals between protein constructs of the same condition (i.e. in FIG. 33B) and FIG. 33C), column 1 for unlabeled and 1 for labeled protein, 2 for unlabeled and 2 for labeled, and so on were statistically compared, and in FIG. 33D) only the +SOS^cat and +GppNHp lanes were compared across protein constructs). FIG. 33A) Cartoon representation of pull down protocol. […] Reported values are quantified pull-down signals normalized to input. FIG. 33B) Cartoon representation of pull down protocol. […] FIG. 33C) Cartoon representation of pull down protocol. […] FIG. 33D) Cartoon representation of pull down protocol. Ras activation is achieved by catalyzing nucleotide exchange by SOS^cat and indirectly reading out activated Ras by subsequent pull down by Raf-1-RBD.
# [3] = molecular target: T2, H-Ras(M72C) GppNHp binding to Raf-1-RBD; assay: Ras GppNHp in vitro pull down by His6-MBP-Raf-1-RBD; conditions: H-Ras(M72C) pre-labeled with compound
# Description: Ras GppNHp In Vitro Pull Down Assay by His6-MBP-Raf-1-RBD. For each His6-MBP-Raf-1-RBD in vitro pull down the total volume was 500 μL. Each reaction had the following final composition: Either 20, 80, 200, 400, or 800 nM Ras GppNHp (from 0.2 mg/mL Ras stock), 75 nM BSA (2.5 μg, 5 μL of 0.5 mg/mL BSA stock), 200 nM of His6-MBP-Raf-1-RBD (5.3 μg, 1.2 μL of 4.38 mg/mL stock of His6-MBP-Raf-1-RBDwitt), and Raf Pull Down Buffer to volume (25 mM Tris (pH 7.2), 150 mM NaCl, 5 mM MgCl2, 1% NP-40, 5% glycerol, 20 mM imidazole). Samples were then mixed by gentle rotation at 4° C. for 30 min. While equilibrating, add 50 μL Ni-NTA slurry (Qiagen) to a cellulose acetate spin cup and spin at 5,000 rpm on a tabletop centrifuge for 30 seconds. Wash the beads with 400 μL of Raf Pull Down Buffer to wash away bead storage buffer. Before adding each pull down solution, take 10 μL and save as a loading control sample. To each spin cup filled with washed Ni-NTA beads, add the remaining equilibrated pull down solution, seal the spin cup with parafilm and let rotate at 4° C. for 30 more minutes. After mixing, centrifuge the sample for 30 seconds at 5,000 rpm. Toss flow through. Wash the beads X 5 with 400 μL of Raf Pull Down Buffer. After last wash, centrifuge one last time to remove any excess buffer stuck to the beads. […] Blots were read out using LICOR compatible secondary antibodies. […]
# 1-169 K-Ras(M72C) GDP = molecular target: T3, 1-169 K-Ras(M72C) GDP (Homo sapiens, UniProt P01116, M72C); assay: Disulfide tethering screen, percent modification by intact protein mass spectrometry; format: binding; conditions: screening βME 1 mM
# T3 construct: Untagged recombinant 1-169 K-Ras(M72C) GDP; His6 (cleaved yes); made in house; host or cells: Escherichia coli BL21(DE3)
# Excerpt: In some embodiments, a library of disulfide compounds may be screened against a cysteine-containing protein in the presence of a reducing agent such as β-mercaptoethanol (BME). Compounds with complementary binding contacts with a region of the protein near the cysteine may shift the disulfide exchange equilibrium away from BME modification of the cysteine thiol and enhance the ratio of the hit ligand bound to the cysteine. The resulting mass change of the protein can be readily detected by mass spectrometry, and the percentage of modified protein can be used as a measure of potency. Compounds which exchange with the cysteine without conferring affinity should exchange with reducing agent equally well and will not shift the equilibrium toward protein modification. The potency of various compounds at a given concentration of BME may be compared by calculating the dose-response 50 (DR50), which is the concentration of compound at which the protein becomes 50% modified.
# A tethering library of 960 disulfides were screened against 1-169 K-Ras(M72C) GDP using intact protein mass spectrometry to monitor percent modification (See Methods, and FIG. 37). […] To better prioritize tethering fragments, a βME50 value (the concentration of βME needed to reduce disulfide fragment modification to 50%) was determined for each compound. […]
# [4] = molecular target: T4, full-length wild-type K-Ras (Homo sapiens, UniProt P01116); assay: Disulfide fragment labeling of full-length wild-type K-Ras (Cys 72 selectivity); format: binding; conditions: wild-type K-Ras contains 4 native cysteine residues
# T4 construct: His6; made in house; host or cells: Escherichia coli BL21(DE3)
# H-Ras(M72C) GppNHp = H-Ras(M72C) GppNHp (Homo sapiens, UniProt P01112, M72C); assay: βME50 and percent labeling of tethering fragments, GppNHp state; format: binding; set-up: Labeling studies were conducted using the 1-166 H-Ras(M72C) construct containing all endogenous cysteines; His6; made in house; host or cells: Escherichia coli BL21(DE3); conditions: disulfide tethering at Cys 72
# Description: FIG. 32. […] Percent labeling against H-Ras(M72C) GDP and GppNHp at the screening βME concentration (1 mM) are graphed.
# (§1) A tethering library of 960 disulfides were screened against 1-169 K-Ras(M72C) GDP using intact protein mass spectrometry to monitor percent modification (See Methods, and FIG. 37). […] To better prioritize tethering fragments, a βME50 value (the concentration of βME needed to reduce disulfide fragment modification to 50%) was determined for each compound. A higher βME50 value corresponds to a better fragment as it can bind with increasing concentrations of competitive thiol (Erlanson et al., 2004; Yang et al., 2009).
# K-Ras(M72C) GDP = molecular target: T5, K-Ras(M72C) GDP (Homo sapiens, UniProt P01116, M72C); assay: βME50 determination of tethering fragments; format: binding; conditions: relative to 2C07
# T5 construct: Untagged recombinant 1-169 K-Ras(M72C) GDP; His6 (cleaved yes); made in house; host or cells: Escherichia coli BL21(DE3)
# Description: as §1
# We next explored small chemical modifications to 2C07.
# WT H-Ras = molecular target: T6, WT H-Ras (Homo sapiens, UniProt P01112); assay: BioLayer interferometry (BLI) reversible binding
# T6 construct: made in house; host or cells: Escherichia coli BL21(DE3)
# H-Ras(M72C) GDP = H-Ras(M72C) GDP (Homo sapiens, UniProt P01112, M72C); assay: Competition labeling experiments (Compound 3 vs Compound 4); format: binding; set-up: Labeling studies were conducted using the 1-166 H-Ras(M72C) construct containing all endogenous cysteines; His6; made in house; host or cells: Escherichia coli BL21(DE3); conditions: 20 μM Compound 3, varying Compound 4 (0-180), 4 μM H-Ras(M72C) GDP
# Description: Competition Labeling Experiments.
# […] were made in Gel Filtration buffer (20 mM HEPES (pH 7.5), 150 mM NaCl) with no added reductant at room temperature. The final concentrations of each reagent were as follows: […], 1 mM MgCl2, […], X mM Compound 4, and a total DMSO concentration of 4% by volume. Compound 4 was varied from OX (0 mM), 1× (20 mM), 3× (60 mM), and 9× (180 mM) respectively. Adding the desired volume of Gel Filtration Buffer, MgCl2, DMSO, and 10 mM compound stocks of Compounds 3 and 4 was done first and mixed thoroughly before protein was added. Reactions were started by the addition and gentle mixing by pipette of concentrated Ras stocks diluted into the master reaction down to […]. Each reaction was set in triplicate and allowed to react at room temperature in the dark (either covered in aluminum foil or in a bench drawer) until the desired time point was reached. At each time point, […] aliquots of each 200 mL master reaction was sampled and quenched by the addition of […] of 2% formic acid (also made in Gel Filtration Buffer). This 25 mL quenched sample was then analyzed by LC/MS and the remaining master reaction was allowed to continue reacting after gentle mixing by pipette. The percent modification was analyzed by electrospray mass spectrometry using a Waters Acquity UPLC/ESI-TQD with a 2.1×50 mm Acquity UPLC BEH300 C4 column.
compound,measurement,setting,value
"C=CC(=O)Nc1ccc(NC(=O)c2cnn(-c3ccc(OC)cc3)c2C(F)(F)F)cc1 [Compound 1, N-(4-acrylamidophenyl)-1-(4-methoxyphenyl)-5-(trifluoromethyl)-1H-pyrazole-4-carboxamide]",Percent modification (labeling of Cys 72),[1],no detectable labeling
"C=CC(=O)Nc1cccc(NC(=O)c2cnn(-c3ccc(OC)cc3)c2C(F)(F)F)c1 [Compound 2, N-(3-acrylamidophenyl)-1-(4-methoxyphenyl)-5-(trifluoromethyl)-1H-pyrazole-4-carboxamide]",Raf-1-RBD binding,[2],do not inhibit Raf RBD binding
same,"Raf-1-RBD binding (pull down), labeled vs unlabeled H-Ras(M72C)",[3],did not inhibit Raf-1-RBD binding
same,Percent modification (labeling of Cys 72),[1],significant increase
"CN(C)CCSSCCCNC(=O)C(=O)c1c[nH]c2ccccc12 [Compound 2B02, N-(3-((2-(dimethylamino)ethyl)disulfanyl)propyl)-2-(1H-indol-3-yl)-2-oxoacetamide]",percent modification,1-169 K-Ras(M72C) GDP,52.8%
same,modification of full-length wild-type K-Ras,[4],did not modify
same,labeling of H-Ras(M72C) GppNHp,H-Ras(M72C) GppNHp,labeled
"COc1ccc(-n2ncc(C(=O)NCCCCSSCCN(C)C)c2C(F)(F)F)cc1 [Compound 2C07b, N-(4-((2-(dimethylamino)ethyl)disulfanyl)butyl)-1-(4-methoxyphenyl)-5-(trifluoromethyl)-1H-pyrazole-4-carboxamide]",change in βME50,K-Ras(M72C) GDP,small decrease
"COc1ccc(-n2cc(C(=O)NCCCSSCCN(C)C)cn2)cc1 [Compound 2C07c, N-(3-((2-(dimethylamino)ethyl)disulfanyl)propyl)-1-(4-methoxyphenyl)-1H-pyrazole-4-carboxamide]",change in βME50,K-Ras(M72C) GDP,drastic decrease
"CCC(=O)Nc1cc(Cl)cc(NC(=O)c2cnn(-c3ccc(OC)cc3)c2C(F)(F)F)c1 [Compound 4, N-(3-chloro-5-propionamidophenyl)-1-(4-methoxyphenyl)-5-(trifluoromethyl)-1H-pyrazole-4-carboxamide]",reversible binding by BLI,WT H-Ras,unable to detect measurable binding
same,rate of Compound 3 labeling (% labeled per hour) in presence of Compound 4,H-Ras(M72C) GDP,dose dependent decrease
same,rate of Compound 3 labeling (% labeled per hour) in presence of Compound 4,H-Ras(M72C) GDP; listed as compound 4,dose-dependent decrease
